We go through seven compounds from patent US8193252B1, “Mesoprogestins (progesterone receptor modulators) for the treatment and prevention of benign hormone dependent gynecological disorders” (Bayer Pharma AG, priority 1999, dated 2012).

In data set [1] the target is T1, progesterone receptor (PR) (Oryctolagus cuniculus, UniProt P06186).
T1 construct: effects of PR-modulators in the uterus of estrogen primed immature rabbits (McPhail test); from tissue; host or cells: uterus (endometrium) of estradiol-primed juvenile rabbits, in vivo
T1 sequence (P06186 1-930): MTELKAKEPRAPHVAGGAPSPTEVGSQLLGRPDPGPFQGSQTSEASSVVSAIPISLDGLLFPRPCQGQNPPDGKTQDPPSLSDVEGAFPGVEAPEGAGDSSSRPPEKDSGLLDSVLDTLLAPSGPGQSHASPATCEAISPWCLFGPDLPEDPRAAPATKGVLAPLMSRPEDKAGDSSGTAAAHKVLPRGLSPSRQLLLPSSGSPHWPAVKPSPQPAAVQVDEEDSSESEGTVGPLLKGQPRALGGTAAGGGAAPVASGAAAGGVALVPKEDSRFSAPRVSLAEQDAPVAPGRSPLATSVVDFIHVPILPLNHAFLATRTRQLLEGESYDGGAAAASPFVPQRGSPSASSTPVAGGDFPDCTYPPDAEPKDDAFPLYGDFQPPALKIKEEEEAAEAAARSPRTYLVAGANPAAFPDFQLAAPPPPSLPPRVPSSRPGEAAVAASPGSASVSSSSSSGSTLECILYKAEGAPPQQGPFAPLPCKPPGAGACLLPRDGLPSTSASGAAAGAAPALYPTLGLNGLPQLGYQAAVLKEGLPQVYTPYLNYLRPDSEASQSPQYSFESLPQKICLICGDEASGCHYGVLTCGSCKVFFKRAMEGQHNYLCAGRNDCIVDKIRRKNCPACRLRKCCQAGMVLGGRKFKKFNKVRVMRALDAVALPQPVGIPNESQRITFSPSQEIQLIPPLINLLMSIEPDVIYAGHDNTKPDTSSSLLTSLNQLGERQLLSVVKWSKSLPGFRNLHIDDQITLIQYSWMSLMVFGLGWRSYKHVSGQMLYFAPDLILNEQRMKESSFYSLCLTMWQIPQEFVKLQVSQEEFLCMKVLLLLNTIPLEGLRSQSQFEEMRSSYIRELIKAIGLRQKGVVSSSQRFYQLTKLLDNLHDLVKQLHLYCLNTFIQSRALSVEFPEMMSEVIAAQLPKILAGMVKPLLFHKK
The data set can be described thus: McPhail test, PR agonistic (progestagenic) activity in estradiol-primed juvenile rabbits. The format is in vivo, rabbit. As to conditions: 4 days s.c. treatment, absence of progesterone. As to the method:
In the classical bioassay, the McPhail test, assessing progestagenic and antiprogestagenic effects in rabbits (Selye H., Textbook of Endocrinology, 1947, pp. 345-346), progesterone produces a maximum McPhail score of 4 (by definition).
The PR antagonistic and agonistic properties of mesoprogestins were assessed in estrogen-primed rabbits in the McPhail test according to Selye (Textbook of Endocrinology, 1947, pp. 345-346).

In the next data set the test system is endometriosis. As to conditions: women treated with danazol; cited from earlier work.
The conditions of data set [2]: as described in DE 43 32 283 / DE 43 32 284; cited from earlier work.
For data set [3] the following is noted: as described in DE 43 32 283 / DE 43 32 284; cited from earlier work. This is another data set of the same source.
The subject of another data set is cyclic guinea pigs. The note with it: cited from earlier work.
Data set [4] has as its target T2, PR (progesterone receptor) (Homo sapiens, UniProt P06401).
T2 sequence (P06401 1-933): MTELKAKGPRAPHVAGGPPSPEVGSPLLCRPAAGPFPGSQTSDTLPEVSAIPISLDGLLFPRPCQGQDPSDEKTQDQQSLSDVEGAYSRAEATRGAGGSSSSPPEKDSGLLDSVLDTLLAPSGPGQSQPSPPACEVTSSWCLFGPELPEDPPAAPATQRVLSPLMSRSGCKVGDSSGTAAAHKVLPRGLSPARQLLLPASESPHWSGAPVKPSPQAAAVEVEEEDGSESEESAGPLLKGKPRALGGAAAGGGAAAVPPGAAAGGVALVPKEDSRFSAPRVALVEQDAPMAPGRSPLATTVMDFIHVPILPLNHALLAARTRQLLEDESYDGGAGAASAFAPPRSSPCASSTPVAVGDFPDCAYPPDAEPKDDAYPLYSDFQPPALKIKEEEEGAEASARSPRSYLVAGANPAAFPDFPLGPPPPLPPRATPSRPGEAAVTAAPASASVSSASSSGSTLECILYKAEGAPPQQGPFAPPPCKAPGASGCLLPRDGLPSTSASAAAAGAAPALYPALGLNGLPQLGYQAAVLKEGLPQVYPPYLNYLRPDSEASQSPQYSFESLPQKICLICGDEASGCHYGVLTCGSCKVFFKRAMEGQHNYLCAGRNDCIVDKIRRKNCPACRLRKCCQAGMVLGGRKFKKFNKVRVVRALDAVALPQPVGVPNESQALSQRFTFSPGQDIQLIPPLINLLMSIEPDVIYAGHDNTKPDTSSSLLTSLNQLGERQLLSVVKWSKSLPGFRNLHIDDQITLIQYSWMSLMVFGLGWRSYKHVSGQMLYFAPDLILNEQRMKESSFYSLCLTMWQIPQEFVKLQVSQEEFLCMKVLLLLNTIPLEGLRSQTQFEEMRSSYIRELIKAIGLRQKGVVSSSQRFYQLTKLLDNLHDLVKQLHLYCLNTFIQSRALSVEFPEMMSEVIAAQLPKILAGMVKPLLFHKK
Briefly: Relative binding activity (RBA) at PR, progesterone = 100%. As to conditions: by Kaufmann.

For a further data set, the target named is T3, GR (Homo sapiens, UniProt P04150).
T3 sequence (P04150 1-777): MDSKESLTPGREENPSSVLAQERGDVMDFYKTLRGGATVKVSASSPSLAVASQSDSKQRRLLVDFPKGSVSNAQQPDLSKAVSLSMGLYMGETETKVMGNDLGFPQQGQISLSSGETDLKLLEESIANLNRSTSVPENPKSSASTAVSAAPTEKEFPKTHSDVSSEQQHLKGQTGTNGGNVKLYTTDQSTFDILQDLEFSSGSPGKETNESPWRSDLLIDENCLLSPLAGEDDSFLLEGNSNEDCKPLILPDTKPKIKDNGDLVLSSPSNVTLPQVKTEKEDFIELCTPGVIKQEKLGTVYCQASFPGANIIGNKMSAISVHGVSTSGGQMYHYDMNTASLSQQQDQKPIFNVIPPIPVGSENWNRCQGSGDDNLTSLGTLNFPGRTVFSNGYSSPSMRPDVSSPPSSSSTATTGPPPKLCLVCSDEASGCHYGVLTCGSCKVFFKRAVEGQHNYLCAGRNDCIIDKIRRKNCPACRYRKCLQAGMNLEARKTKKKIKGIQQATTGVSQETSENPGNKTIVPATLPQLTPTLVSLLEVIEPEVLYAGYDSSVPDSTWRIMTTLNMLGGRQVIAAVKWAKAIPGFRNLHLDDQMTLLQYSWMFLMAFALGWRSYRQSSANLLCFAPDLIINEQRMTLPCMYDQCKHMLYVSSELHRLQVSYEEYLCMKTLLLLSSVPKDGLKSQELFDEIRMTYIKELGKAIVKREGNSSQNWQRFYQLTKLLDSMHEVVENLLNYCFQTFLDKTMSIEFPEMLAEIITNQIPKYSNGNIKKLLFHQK
Briefly: Relative binding activity (RBA) at GR, dexamethasone = 100%. The note with it: by Kaufmann.

The test system of the next data set is pregnant rats. Briefly: Abortifacient activity in pregnant rats. The format is in vivo, rat. As to conditions: s.c.; treatment days 5-7 of pregnancy, autopsy day 9; * SAS, probit procedure. The text has this: (§1) The guinea pig is considered as relevant model of human gestation and parturition (Elger W, Fähnrich M, Beier S, Quing S S, Chwalisz K (1987). Endometrial and myometrial effects of progesterone antagonists in pregnant guinea pigs. Am J Obstet Gynecol 157: 1065-1074; Elger W, Neef G, Beier S, Fähnrich M, Gründel M, Heermann J, Malmendier A, Laurent D, Puri C P, Singh M M, Hasan S H, Becker H (1992). Evaluation of antifertility activities of antigestagens in animal model. In: Puri C P and Van Look P F A (eds), Current Concepts in Fertility Regulation and Reproduction. Wiley Eastern Limited, New Delhi, pp. 303-328; Elger W, Faehnrich M, Beier S, Qing S S, Chwalisz K (1986). Mechanism of action of progesterone antagonists in pregnant guinea pigs. Contraception 6: 47-62; Elger W, Chwalisz K, Faehnrich M, Hasan S H, Laurent D, Beier S, Ottow E, Neef G, Garfield R E (1990). Studies on labor-conditioning and labor-inducing effects of antiprogesterones in animal model. In: Garfield R E (eds), Norwell, pp. 153-175.) The mechanism of abortion of antiprogestins in this species is the initiation of labor and finally the expulsion of the conceptus. Abortifacient effects in the rat during very early pregnancy reflect inhibitory effects on nidation rather than initiation of uterine contractions. Studies in the rat model lead to “overestimation” of the potential of antiprogestins to terminate pregnancy in humans. Conversely, in the guinea pig model, irrespective of the antiprogestin doses, there were high rates of ongoing pregnancies similar to the situation in humans (Elger et al., Current Concepts in Fertility Regulation and Reproduction cited above). Furthermore, in both humans and guinea pigs, there is a strong synergism between antiprogestins and prostaglandins with respect the induction of labor (see the articles cited above and Elger W, Beier S (1983). Prostaglandine and Antigestagene für den Schwangerschaftsabbruch (Prostaglandins and antigestagens for pregnancy termination). German Patent DE 3337450 12; Van Look P, Bygdeman M (1989). Antiprogestational steroids: a new dimension in human fertility regulation. Oxford reviews of reproductive medicine 11: 2-60).

For the next data set, the system named is pregnant guinea pigs. Briefly: Abortifacient / labor inducing activity in pregnant guinea pigs. As to conditions: for abortifacient activity ED50, guinea pig: s.c., treatment day 43-44 of pregnancy, autopsy day 50. The format is in vivo, guinea pig. Here is the method:
In the guinea pig model which allows a good prediction of the effects in humans with respect to the abortifacient activity (Elger W, Beier S., Chwalisz K, Fähnrich M, Hasan S H, Henderson D, Neef G, Rohde R (1986): Studies on the mechanism of action of progesterone antagonists. J Steroid Biochem 25: 835-845) the mesoprogestins J 867, J 912, J 956, J 1042 lead up to 100 mg/kg/day to a maximal abortion rate of 20%.
as §1
Pregnant guinea pigs were treated on days 43 and 44 of pregnancy and observed until day 50 of gestation. For the effects of various treatments see table 1 and FIG. 2. It is typical for this model that expulsions occur with a delay of several days after treatment. It can be seen that Mesoprogestins have a much reduced abortifacient activity compared to RU486. […] The differences with respect to abortifacient activity seem qualitative ones. It is not possible to overcome the low abortifacient activity of a Mesoprogestin by the use of a higher dose.
FIG. 2 is graphs showing data on the assessment on cumulative rate of abortion until day 50 in guinea pigs treated on days 43 and 44 of pregnancy.

The subject of another data set is menorrhagia. The note with it: women with ovulatory menorrhagia, acute administration during bleeding; cited from earlier work.

As for `CC(=O)[C@H]1CC[C@H]2[C@@H]3CCC4=CC(=O)CC[C@]4(C)[C@H]3CC[C@]12C` [Progesterone], in [1], the “dose at which progestagenic effect / endometrial transformation was observed” value is at least 0.1 mg/rabbit; the “dose of maximum effect” value is on record as 1 mg/rabbit; the “maximum effect, McPhail score” value was around 4 McPhail score.

Regarding `C#C[C@]1(O)CC[C@H]2[C@@H]3CCC4=Cc5oncc5C[C@]4(C)[C@H]3CC[C@@]21C` [danazol], the “women with side effects” value with endometriosis is at most 85%.

Consider `COC[C@]1(OC)CC[C@H]2[C@@H]3CCC4=CC(=O)CCC4=C3[C@@H](c3ccc(/C=N/OC(C)=O)cc3)C[C@@]21C` [J 914, 4-[17β-Methoxy-17α-(methoxymethyl)-3-oxoestra-4,9-dien-11β-yl]benzaldehyd-(1E)-(O-acetyl)oxim], for which the antiprogestagenic activity entry in data set [2] is “strong”. Also, in [3], the “antiglucocorticoid activity compared to RU 486” value is “markedly reduced”. The uterine weights entry in the data set on cyclic guinea pigs is on record as “reduced uterine weights”.

As for `COCC1(O)CCC2C3CCC4=CC(=O)CCC4=C3C(c3ccc(C=NO)cc3)CC21C` (stereo not drawn) [J912, 4-[17β-Hydroxy-17α-(methoxymethyl)-3-oxoestra-4,9-dien-11β-yl]benzaldehyd-(1E)-oxim], the “RBA (%) PR” value in data set [4] worked out at 162%. In addition, the “RBA (%) GR” value on GR is 16%. Further, the “abortifacient activity ED50, rat” value in the data set on pregnant rats is 0.36 mg/animal/day. Besides, the “abortifacient activity ED50, guinea pig” value with pregnant guinea pigs is given as above 100 mg/animal/day. In the data set with pregnant guinea pigs (treated on days 43 and 44 of pregnancy, observed until day 50), the “ranking of abortifacient activity” value is on record as “RU486>J956>J867, J912>J1042”.

Turning to `CN(C)c1ccc([C@H]2C[C@]3(C)[C@@H](CC[C@]3(O)CCCO)[C@@H]3CCC4=CC(=O)CCC4=C32)cc1` [Onapristone, reference compound], the “RBA (%) PR” value in [4] was found to be 22%. Moreover, the “RBA (%) GR” value on GR was 39%. Besides, the “abortifacient activity ED50, rat” value in the data set on pregnant rats is recorded as 1.71* mg/animal/day. Moreover, the “abortifacient activity ED50, guinea pig” value with pregnant guinea pigs is recorded as “ca 3 mg/animal/day”.

In the case of `CCOC(=O)O/N=C/c1ccc([C@H]2C[C@@]3(C)[C@@H](CC[C@]3(COC)OC)[C@@H]3CCC4=CC(=O)CCC4=C32)cc1` [J 900, 4-[17β-Methoxy-17α-(methoxymethyl)-3-oxoestra-4,9-dien-11β-yl]benzaldehyd-(1E)-[O-(ethoxy)carbonyl]oxim], the antiprogestagenic activity result in data set [2] was “strong”. For the same compound, the “antiglucocorticoid activity compared to RU 486” value in data set [3] is reported as “markedly reduced”. Further, the uterine weights result in the data set on cyclic guinea pigs is reported as “reduced uterine weights”.

`NC[C@H]1CC[C@H](C(=O)O)CC1` [tranexamic acid]: in the data set on menorrhagia, the blood loss reduction is reported as 45%.
